Experimental data published in patent US10548912B2, “Dosage regimen for a tiacumicin compound” (Astellas Pharma Europe Ltd., priority 2015, dated 2020).

How the values were obtained:
[1] = tested on: CDI; assay: Individual patient data for extended fidaxomicin treatment regimen; assay type: in vivo, human
From the text: Individual Patient Data for Extended Fidaxomicin Treatment Regimen

[2] = tested on: CDI; conditions: Phase III studies, mITT analysis; cited from earlier work
[3] = tested on: Clostridium difficile (C. diff) toxins A and B; assay: Detection of C. difficile toxins A and B in human faecal samples by ELISA (EXTEND samples); assay type: in vivo
Procedure: The detection of Clostridium difficile (C. diff) toxins A and B in human faecal samples was performed by ELISA. The samples to be analysed originated from clinical study 2819-MA-1002 (EXTEND).
The samples were sent to LGC (Analytical lab in Fordham, Cambridgeshire, UK) packed in dry ice and upon receipt stored in a freezer (nominally −80° C.). For each patient a stool sample was collected at Day 0 (screening) and also in case of disease recurrence or an unscheduled visit. For subjects participating in the Microbiome sub-study stool samples were collected at: Day 0 (screening), Day 5, Day 12, Day 27, Day 40, Day 55 and in the case of disease recurrence or an unscheduled visit. A total of 596 faecal samples were collected during the study.
C. difficile toxins A and B in human faecal samples were detected using TECHLAB C. difficile Tox A/B II ELISA kits (Product Number T5015).
The assay readout is the spectrophotometric dual wavelength optical density (OD) read at 450 nm and referenced at 620 nm and expressed in Absorbance Units (AU). All samples were measured in duplicate. The presence (+) or absence (−) of toxin was reported together with the mean OD.
The acceptability of each batch of test samples was dependent on the data from the QC samples fulfilling the acceptance criteria outlined below in Table 5, in that all positive QCs remain above the cut off value of >0.080 OD and negative QCs remain ≤0.080 OD. All batches contained 2 separate sets of QC samples which were measured in duplicate. The precision was calculated between the OD of replicates of each set using the coefficient of variation (CV) which should be <20%.

[4] = oral administration; cited from earlier work
[5] = tested on: Clostridium difficile infection; conditions: Louie 2011; 200 mg Fidaxomicin twice daily or vancomycin 125 mg four times daily orally for 10 days; cited from earlier work
[6] = Sub-study visit day 5, n = 20 per arm
[7] = Sub-study visit day 12, n = 20 per arm
[8] = Sub-study visit day 27, n = 20 Fidaxomicin, 17 Vancomycin

SMILES: CCc1c(Cl)c(O)c(Cl)c(O)c1C(=O)O[C@H]1[C@H](O)[C@H](OC)[C@H](OC/C2=C\C=C\C[C@H](O)/C(C)=C/[C@H](CC)[C@@H](O[C@@H]3OC(C)(C)[C@@H](OC(=O)C(C)C)[C@H](O)[C@@H]3O)/C(C)=C/C(C)=C/C[C@@H]([C@@H](C)O)OC2=O)O[C@@H]1C [fidaxomicin, 3-[[[6-deoxy-4-O-(3,5-dichloro-2-ethyl-4,6-dihydroxybenzoyl)-2-O-methyl-β-D-mannopyranosyl]oxy]methyl]-12(R)-[[6-deoxy-5-C-methyl-4-O-(2-methyl-1-oxopropyl)-β-D-lyxo-hexopyranosyl]oxy]-11 (S)-ethyl-8(S)-hydroxy-18(S)-(1(R)-hydroxyethyl)-9,13,15-trimethyloxacyclooctadeca-3,5,9,13,15-pentaene-2-one]
- Number of Unformed bowel movements per day ([1]; Patient 1 (ID: 3000510001), Day 1): 4
- Number of Unformed bowel movements per day ([1]; Patient 1 (ID: 3000510001), Day 2): 2
- Number of Unformed bowel movements per day ([1]; Patient 1 (ID: 3000510001), Day 3): 1
- Number of Unformed bowel movements per day ([1]; Patient 1 (ID: 3000510001), Day 4): 0
- Number of Unformed bowel movements per day ([1]; Patient 1 (ID: 3000510001), Day 5): 0
- Number of Unformed bowel movements per day ([1]; Patient 1 (ID: 3000510001), Day 6): 2
- Number of Unformed bowel movements per day ([1]; Patient 1 (ID: 3000510001), Day 7): 0
- Number of Unformed bowel movements per day ([1]; Patient 1 (ID: 3000510001), Day 8): 0
- Number of Unformed bowel movements per day ([1]; Patient 1 (ID: 3000510001), Day 9): 0
- Number of Unformed bowel movements per day ([1]; Patient 1 (ID: 3000510001), Day 10): 0
- Number of Unformed bowel movements per day ([1]; Patient 2 (ID: 3000710001), Day 1): 7
- Number of Unformed bowel movements per day ([1]; Patient 2 (ID: 3000710001), Day 2): 7
- Number of Unformed bowel movements per day ([1]; Patient 2 (ID: 3000710001), Day 3): 2
- Number of Unformed bowel movements per day ([1]; Patient 2 (ID: 3000710001), Day 4): 1
- Number of Unformed bowel movements per day ([1]; Patient 2 (ID: 3000710001), Day 5): 1
- Number of Unformed bowel movements per day ([1]; Patient 2 (ID: 3000710001), Day 6): 2
- Number of Unformed bowel movements per day ([1]; Patient 2 (ID: 3000710001), Day 7): 1
- Number of Unformed bowel movements per day ([1]; Patient 2 (ID: 3000710001), Day 8): 1
- Number of Unformed bowel movements per day ([1]; Patient 2 (ID: 3000710001), Day 9): 1
- Number of Unformed bowel movements per day ([1]; Patient 2 (ID: 3000710001), Day 10): 0
- Number of Unformed bowel movements per day ([1]; Patient 3 (ID: 3400310001), Day 1): 8
- Number of Unformed bowel movements per day ([1]; Patient 3 (ID: 3400310001), Day 2): 0
- Number of Unformed bowel movements per day ([1]; Patient 3 (ID: 3400310001), Day 3): 0
- Number of Unformed bowel movements per day ([1]; Patient 3 (ID: 3400310001), Day 4): 0
- Number of Unformed bowel movements per day ([1]; Patient 3 (ID: 3400310001), Day 5): 0
- Number of Unformed bowel movements per day ([1]; Patient 3 (ID: 3400310001), Day 6): 0
- Number of Unformed bowel movements per day ([1]; Patient 3 (ID: 3400310001), Day 7): 0
- Number of Unformed bowel movements per day ([1]; Patient 3 (ID: 3400310001), Day 8): 0
- Number of Unformed bowel movements per day ([1]; Patient 3 (ID: 3400310001), Day 9): 0
- Number of Unformed bowel movements per day ([1]; Patient 3 (ID: 3400310001), Day 10): 0
- Number of Unformed bowel movements per day ([1]; Patient 4 (ID: 3580210001), Day 1): 9
- Number of Unformed bowel movements per day ([1]; Patient 4 (ID: 3580210001), Day 2): 9
- Number of Unformed bowel movements per day ([1]; Patient 4 (ID: 3580210001), Day 3): 5
- Number of Unformed bowel movements per day ([1]; Patient 4 (ID: 3580210001), Day 4): 3
- Number of Unformed bowel movements per day ([1]; Patient 4 (ID: 3580210001), Day 5): 2
- Number of Unformed bowel movements per day ([1]; Patient 4 (ID: 3580210001), Day 6): 3
- Number of Unformed bowel movements per day ([1]; Patient 4 (ID: 3580210001), Day 7): 3
- Number of Unformed bowel movements per day ([1]; Patient 4 (ID: 3580210001), Day 8): 1
- Number of Unformed bowel movements per day ([1]; Patient 4 (ID: 3580210001), Day 9): 1
- Number of Unformed bowel movements per day ([1]; Patient 4 (ID: 3580210001), Day 10): 2
- Recurrence of CDI [2]: 14.1%
- CDI toxin in faecal stool samples, Negative (%) [3, 6]: (75%)
- CDI toxin in faecal stool samples, Negative (number of subjects) [3, 6]: 15
- CDI toxin in faecal stool samples, Positive (%) [3, 6]: (25%)
- CDI toxin in faecal stool samples, Positive (number of subjects) [3, 6]: 5
- CDI toxin in faecal stool samples, Negative (%) [3, 7]: (95.0%)
- CDI toxin in faecal stool samples, Negative (number of subjects) [3, 7]: 19
- CDI toxin in faecal stool samples, Positive (%) [3, 7]: (5.0%)
- CDI toxin in faecal stool samples, Positive (number of subjects) [3, 7]: 1
- CDI toxin in faecal stool samples, Negative (%) [3, 8]: (95.0%)
- CDI toxin in faecal stool samples, Negative (number of subjects) [3, 8]: 19
- CDI toxin in faecal stool samples, Positive (%) [3, 8]: (5.0%)
- CDI toxin in faecal stool samples, Positive (number of subjects) [3, 8]: 1
- Absorption from the intestinal tract [4]: poorly absorbed
- Recurrence 30 days after end of treatment (%) [5]: 15.4%
- Recurrence 30 days after end of treatment (patients/N) [5]: 39/253
- Sustained clinical cure 30 days after end of treatment (%) [5]: 74.6%
- Sustained clinical cure 30 days after end of treatment (patients/N) [5]: 214/287
